# From the NIST ThermoML archive (doi:10.1021/je400149j)
# ± gives the expanded uncertainty stated by the source.
# Key:
# [1] = relative permittivity at zero frequency (dimensionless); settings: 101 kPa, Liquid, impedance/gain phase analyzer
# [2] = Crystal; Derived from relative static permittivity measurements of the liquid and solid states
# [3] = relative permittivity at zero frequency (dimensionless); xn = mol fraction of the nth substance listed; settings: 101 kPa, Liquid, impedance/gain phase analyzer, x2 = 0
compound,measurement,setting,value
C[S+](C)[O-] [dimethyl sulfoxide],relative permittivity at zero frequency,[1]; 291.15 K,47.15 ± 0.1
same,relative permittivity at zero frequency,[1]; 293.15 K,47.09 ± 0.1
same,relative permittivity at zero frequency,[1]; 295.15 K,46.84 ± 0.1
same,relative permittivity at zero frequency,[1]; 297.15 K,46.64 ± 0.1
same,relative permittivity at zero frequency,[1]; 299.15 K,46.39 ± 0.1
same,relative permittivity at zero frequency,[1]; 301.15 K,46.18 ± 0.1
same,relative permittivity at zero frequency,[1]; 303.15 K,45.94 ± 0.1
same,relative permittivity at zero frequency,[1]; 305.15 K,45.63 ± 0.1
same,relative permittivity at zero frequency,[1]; 307.15 K,45.39 ± 0.1
same,relative permittivity at zero frequency,[1]; 309.15 K,45.14 ± 0.1
same,relative permittivity at zero frequency,[1]; 311.15 K,44.88 ± 0.1
same,relative permittivity at zero frequency,[1]; 313.15 K,44.64 ± 0.1
same,relative permittivity at zero frequency,[1]; 315.15 K,44.34 ± 0.1
same,relative permittivity at zero frequency,[1]; 317.15 K,44.11 ± 0.1
same,relative permittivity at zero frequency,[1]; 319.15 K,43.87 ± 0.1
same,relative permittivity at zero frequency,[1]; 321.15 K,43.58 ± 0.1
same,relative permittivity at zero frequency,[1]; 323.15 K,43.31 ± 0.1
same,relative permittivity at zero frequency,[1]; 325.15 K,43.07 ± 0.1
same,relative permittivity at zero frequency,[1]; 327.15 K,42.78 ± 0.1
same,relative permittivity at zero frequency,[1]; 329.15 K,42.56 ± 0.1
same,relative permittivity at zero frequency,[1]; 331.15 K,42.27 ± 0.1
same,relative permittivity at zero frequency,[1]; 333.15 K,42 ± 0.1
same,Normal melting temperature,[2],18.1 ± 1 °C
O [water],relative permittivity at zero frequency,[1]; 273.15 K,87 ± 0.1
same,relative permittivity at zero frequency,[1]; 275.15 K,86.36 ± 0.1
same,relative permittivity at zero frequency,[1]; 277.15 K,85.67 ± 0.1
same,relative permittivity at zero frequency,[1]; 279.15 K,84.84 ± 0.1
same,relative permittivity at zero frequency,[1]; 281.15 K,84.25 ± 0.1
same,relative permittivity at zero frequency,[1]; 283.15 K,83.37 ± 0.1
same,relative permittivity at zero frequency,[1]; 285.15 K,82.73 ± 0.1
same,relative permittivity at zero frequency,[1]; 287.15 K,82.02 ± 0.1
same,relative permittivity at zero frequency,[1]; 289.15 K,81.33 ± 0.1
same,relative permittivity at zero frequency,[1]; 291.15 K,80.65 ± 0.1
same,relative permittivity at zero frequency,[1]; 293.15 K,79.98 ± 0.1
same,relative permittivity at zero frequency,[1]; 295.15 K,79.32 ± 0.1
same,relative permittivity at zero frequency,[1]; 297.15 K,78.42 ± 0.1
same,relative permittivity at zero frequency,[1]; 299.15 K,77.85 ± 0.1
same,relative permittivity at zero frequency,[1]; 301.15 K,77.29 ± 0.1
same,relative permittivity at zero frequency,[1]; 303.15 K,76.61 ± 0.1
same,relative permittivity at zero frequency,[1]; 305.15 K,75.95 ± 0.1
same,relative permittivity at zero frequency,[1]; 307.15 K,75.3 ± 0.1
same,relative permittivity at zero frequency,[1]; 309.15 K,74.65 ± 0.1
same,relative permittivity at zero frequency,[1]; 311.15 K,73.97 ± 0.1
same,relative permittivity at zero frequency,[1]; 313.15 K,73.29 ± 0.1
same,relative permittivity at zero frequency,[1]; 315.15 K,72.68 ± 0.1
same,relative permittivity at zero frequency,[1]; 317.15 K,72.09 ± 0.1
same,relative permittivity at zero frequency,[1]; 319.15 K,71.44 ± 0.1
same,relative permittivity at zero frequency,[1]; 321.15 K,70.76 ± 0.1
same,relative permittivity at zero frequency,[1]; 323.15 K,70.14 ± 0.1
same,relative permittivity at zero frequency,[1]; 325.15 K,69.54 ± 0.1
same,relative permittivity at zero frequency,[1]; 327.15 K,68.94 ± 0.1
same,relative permittivity at zero frequency,[1]; 329.15 K,68.3 ± 0.1
same,relative permittivity at zero frequency,[1]; 331.15 K,67.68 ± 0.1
same,relative permittivity at zero frequency,[1]; 333.15 K,67.07 ± 0.1
same,Normal melting temperature,[2],0.1 ± 1 °C
O [water] + C[S+](C)[O-],relative permittivity at zero frequency,[3]; 273.15 K,87 ± 0.1
same,relative permittivity at zero frequency,[3]; 275.15 K,86.36 ± 0.1
same,relative permittivity at zero frequency,[3]; 277.15 K,85.67 ± 0.1
same,relative permittivity at zero frequency,[3]; 279.15 K,84.84 ± 0.1
same,relative permittivity at zero frequency,[3]; 281.15 K,84.25 ± 0.1
same,relative permittivity at zero frequency,[3]; 283.15 K,83.37 ± 0.1
same,relative permittivity at zero frequency,[3]; 285.15 K,82.73 ± 0.1
same,relative permittivity at zero frequency,[3]; 287.15 K,82.02 ± 0.1
same,relative permittivity at zero frequency,[3]; 289.15 K,81.33 ± 0.1
same,relative permittivity at zero frequency,[3]; 291.15 K,80.65 ± 0.1
same,relative permittivity at zero frequency,[3]; 293.15 K,79.98 ± 0.1
same,relative permittivity at zero frequency,[3]; 295.15 K,79.32 ± 0.1
same,relative permittivity at zero frequency,[3]; 297.15 K,78.42 ± 0.1
same,relative permittivity at zero frequency,[3]; 299.15 K,77.85 ± 0.1
same,relative permittivity at zero frequency,[3]; 301.15 K,77.29 ± 0.1
same,relative permittivity at zero frequency,[3]; 303.15 K,76.61 ± 0.1
same,relative permittivity at zero frequency,[3]; 305.15 K,75.95 ± 0.1
same,relative permittivity at zero frequency,[3]; 307.15 K,75.3 ± 0.1
same,relative permittivity at zero frequency,[3]; 309.15 K,74.65 ± 0.1
same,relative permittivity at zero frequency,[3]; 311.15 K,73.97 ± 0.1
same,relative permittivity at zero frequency,[3]; 313.15 K,73.29 ± 0.1
same,relative permittivity at zero frequency,[3]; 315.15 K,72.68 ± 0.1
same,relative permittivity at zero frequency,[3]; 317.15 K,72.09 ± 0.1
same,relative permittivity at zero frequency,[3]; 319.15 K,71.44 ± 0.1
same,relative permittivity at zero frequency,[3]; 321.15 K,70.76 ± 0.1
same,relative permittivity at zero frequency,[3]; 323.15 K,70.14 ± 0.1
same,relative permittivity at zero frequency,[3]; 325.15 K,69.54 ± 0.1
same,relative permittivity at zero frequency,[3]; 327.15 K,68.94 ± 0.1
same,relative permittivity at zero frequency,[3]; 329.15 K,68.3 ± 0.1
same,relative permittivity at zero frequency,[3]; 331.15 K,67.68 ± 0.1
same,relative permittivity at zero frequency,[3]; 333.15 K,67.07 ± 0.1
